# Laboratory results as given in publication PMC9127750, “Structure-based design of CDC42 effector interaction inhibitors for the treatment of cancer” (Cell reports, 2022).
# Values joined by “and” are separate entries in the source; they are usually repeats but may differ in a detail not shown here. Equal entries are not always repeated.
# System: WM3248 melanoma cells, 486 antibodies
# Experiment: Reverse phase protein arrays (RPPA);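 as to CA9.R.C RPPA level: ratio of treated to vehicle (0 µM) normalized linear protein signal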;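 as to CD171.M.V RPPA level: ratio of treated to vehicle (0 µM) normalized linear protein signal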;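 as to CREB pS133.R.C RPPA level: ratio of treated to vehicle (0 µM) normalized linear protein signal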;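 as to Cyclin.B1.R.V RPPA level: ratio of treated to vehicle (0 µM) normalized linear protein signal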
# Assay type: cell-based, Human
# Settings: 5 uM
# Excerpt: Pellets were snap frozen in liquid nitrogen and shipped to MD Anderson Cancer Center core RPPA facility for RPPA analysis (Table S5). Three biological replicates for each sample were generated.
# Nomenclatures on the RPPA heatmaps: name_of_antibody.species_of_antibody.status_of_antibody. V - antibody validated; C - validation of antibody in progress; Q - antibody nonspecific; E – under evaluation; antibodies raised in M - mouse, G - goat, R - rabbit, or T - rat.
compound,measurement,setting,value
"CN(C)c1cccc(Nc2cc(-c3ccccc3)nc(C3CCNCC3)n2)c1 [ARN22089, N1,N1-dimethyl-N3-(6-phenyl-2-(piperidin-4-yl)pyrimidin-4-yl)benzene-1,3-diamine]","RPPA signal, antibody Vinculin.M.V",individual replicates,0.948 and 1.034 and 1.010
same,"RPPA signal, antibody WIPI1.R.C",individual replicates,1.016 and 0.609
same,"RPPA signal, antibody WIPI2.R.C",individual replicates,0.917 and 1.190 and 1.151
same,"RPPA signal, antibody WTAP.R.V",individual replicates,1.007 and 0.770 and 0.970
same,"RPPA signal, antibody Wee1.R.C",individual replicates,0.852 and 1.576 and 1.161
same,"RPPA signal, antibody Wee1_pS642.R.C",individual replicates,0.857 and 1.327 and 1.158
same,"RPPA signal, antibody XBP.1.G.C",individual replicates,1.019 and 0.701
same,"RPPA signal, antibody XIAP.R.C",individual replicates,1.016 and 1.128
same,"RPPA signal, antibody XPA.M.V",individual replicates,1.083 and 0.917 and 1.035
same,"RPPA signal, antibody XPF.R.C",individual replicates,0.939 and 1.048
same,"RPPA signal, antibody XRCC1.R.C",individual replicates,1.023 and 0.932 and 0.869
same,"RPPA signal, antibody YAP.R.C",individual replicates,1.026 and 0.858 and 1.131
same,"RPPA signal, antibody YAP_pS127.R.V",individual replicates,0.924 and 0.808 and 1.102
same,"RPPA signal, antibody YB1_pS102.R.V",individual replicates,0.854 and 0.995
same,"RPPA signal, antibody YES1.R.V",individual replicates,1.034 and 0.913 and 0.948
same,"RPPA signal, antibody YTHDF2.R.V",individual replicates,1.139 and 0.982 and 0.641
same,"RPPA signal, antibody YTHDF3.R.C",individual replicates,0.920 and 0.753
same,"RPPA signal, antibody ZAP.70.R.V",individual replicates,0.901 and 1.193
same,"RPPA signal, antibody ZEB1.R.V",individual replicates,0.874 and 1.035
same,C.Raf.R.C RPPA level,replicates,0.877 and 1.136
same,C.Raf_pS338.R.V RPPA level,replicates,1.205
same,CA9.R.C RPPA level,replicates,0.982 and 0.948 and 1.015
same,CD2.M.C RPPA level,replicates,1.000 and 0.961 and 1.133
same,CD4.R.V RPPA level,replicates,0.886 and 1.117
same,CD5.M.C RPPA level,replicates,1.034 and 0.973
same,CD20.R.C RPPA level,replicates,1.057 and 0.829 and 0.477
same,CD26.R.V RPPA level,replicates,0.893 and 1.128 and 0.797
same,CD29.M.V RPPA level,replicates,0.991 and 0.954 and 1.138
same,CD31.M.V RPPA level,replicates,1.000 and 0.925 and 1.157
same,CD38.R.C RPPA level,replicates,0.963 and 1.191 and 1.116
same,CD44.R.C RPPA level,replicates,0.984 and 0.955 and 0.823
same,CD45.M.V RPPA level,replicates,1.027 and 0.978 and 1.076
same,CD49b.M.V RPPA level,replicates,1.059 and 0.901 and 0.919
same,CD68.M.C RPPA level,replicates,1.053 and 0.950 and 1.032
same,CD74.M.V RPPA level,replicates,0.953
same,CD134.R.V RPPA level,replicates,1.004 and 0.980 and 1.076
same,CD171.M.V RPPA level,replicates,0.646 and 0.896 and 0.990
same,CDK1_pT14.R.C RPPA level,replicates,0.964 and 1.128
same,CDK9.R.V RPPA level,replicates,1.046 and 0.940 and 0.953
same,CDKN2A.R.C RPPA level,replicates,1.033 and 0.974 and 1.120
same,CDT1.R.V RPPA level,replicates,1.009 and 1.034
same,CENP.A.R.V RPPA level,replicates,1.061 and 0.838 and 0.961
same,CIITA.R.C RPPA level,replicates,0.973 and 0.944 and 0.768
same,COG3.R.V RPPA level,replicates,1.020 and 1.162 and 1.108
same,CRABP1.R.C RPPA level,replicates,1.003 and 1.061
same,CRABP2.R.V RPPA level,replicates,1.206 and 0.955 and 0.945
same,CREB_pS133.R.C RPPA level,replicates,0.945 and 1.492 and 0.936
same,CSK.R.C RPPA level,replicates,1.015 and 1.119 and 0.620
same,Calnexin.R.V RPPA level,replicates,0.967 and 1.097
same,Caspase.3.cleaved.R.C RPPA level,replicates,0.926 and 1.159
same,Caspase.7.cleaved..R.C RPPA level,replicates,0.858 and 1.158
same,Caspase.8.M.Q RPPA level,replicates,1.096 and 0.944
same,Caspase.8.cleaved.R.C RPPA level,replicates,0.924 and 1.111 and 1.128
same,Caveolin.1.R.V RPPA level,replicates,0.498 and 0.935 and 1.046
same,Cdc6.R.V RPPA level,replicates,0.936
same,Cdc42.R.C RPPA level,replicates,0.966 and 1.031
same,Chk1.M.C RPPA level,replicates,1.078 and 0.961
same,Chk1_pS296.R.V RPPA level,replicates,0.982 and 1.154 and 1.114
same,Chk1_pS345.R.C RPPA level,replicates,1.000 and 1.084 and 0.861
same,Chk2.M.V RPPA level,replicates,1.157 and 0.671
same,Chk2_pT68.R.C RPPA level,replicates,0.939 and 1.327 and 1.189
same,Claudin.7.R.V RPPA level,replicates,1.057 and 0.909 and 0.755
same,Collagen.VI.R.V RPPA level,replicates,1.076 and 0.844 and 1.257
same,Complex.II.Subunit.M.V RPPA level,replicates,1.008 and 1.014 and 0.777
same,Connexin.43.R.C RPPA level,replicates,1.009 and 1.236
same,Coup.TFII.R.C RPPA level,replicates,0.833 and 1.226
same,Cox2.R.C RPPA level,replicates,1.024 and 0.895 and 1.250
same,Cox.IV.R.V RPPA level,replicates,0.999 and 1.060 and 1.025
same,Creb.R.C RPPA level,replicates,1.026 and 1.133 and 1.082
same,CtIP.R.V RPPA level,replicates,0.829 and 1.057 and 0.997
same,Cyclin.B1.R.V RPPA level,replicates,1.136 and 0.725 and 1.229
same,Cyclin.D1.R.C RPPA level,replicates,1.048 and 0.891 and 1.065
same,Cyclin.D3.M.V RPPA level,replicates,1.309 and 1.005 and 0.824
same,Cyclin.E1.R.V RPPA level,replicates,1.096 and 0.925 and 0.965
same,Cyclophilin.F.M.V RPPA level,replicates,0.978 and 1.019 and 0.727
same,D.a.Tubulin.R.V RPPA level,replicates,0.975 and 1.193
same,DAPK1_pS308.M.C RPPA level,replicates,1.267 and 0.870 and 0.330
same,DAPK2.R.C RPPA level,replicates,0.970 and 1.126 and 1.124
same,DDB.1.R.V RPPA level,replicates,0.890 and 0.958 and 1.524
same,DDR1.R.V RPPA level,replicates,1.024 and 0.829 and 1.002
same,DDR1_pY513.R.C RPPA level,replicates,1.024 and 0.961 and 1.078
